Assay results as given in publication PMC8151276, “An Integrated Approach toward NanoBRET Tracers for Analysis of GPCR Ligand Engagement” (Molecules, 2021).

What was measured:
Format in all cases: binding
[1] = biological target: T1, HTR1B (Homo sapiens, UniProt P28222); assay: NanoBRET screen HiBiT-HTR1B in HEK293; conditions: HTR1B
T1 construct: purchased Promega (in-house HiBiT-GPCR construct library, NanoBRET)
Description: (§1) Each tracer candidate was screened across the entire library of HiBiT-GPCR constructs using NanoBRET as the detection modality. As depicted in Figure 4A, the specificity of interactions was evaluated through decrease in BRET due to competitive displacement of a bound tracer by excess parental compound. Each tracer was analyzed for binding to each HiBiT-GPCR fusion in the absence and in the presence of competing parental compound. Briefly, HEK293 cells were transfected with HiBiT-GPCR constructs diluted into promoterless DNA to reduce expression and maximize translocation to the cell surface. Each tracer candidate was then screened at concentrations of 1 μM and 0.1 μM across cells expressing these fusions. Cells were treated for 1.5 h with tracer either alone or in the presence of 20 μM competing parental compound (i.e., control). BRET was measured upon addition of purified LgBiT and subsequent complementation with HiBiT genetically fused to a GPCR. The specificity of interactions was assessed through a decrease in BRET signal due to competitive displacement of the bound tracer. To further gauge the robustness of these interactions, the fold response over the control (i.e., BRETtracer/BRETcontrol) was calculated. We chose a 1.5-fold response, which translates to ≥7-fold signal over noise as the minimal threshold required to score an interaction as positive. […]. Below we highlight the screening results obtained for our exemplary fluorescent tracers based on Clozapine, Amitriptyline and AZD1283.
(§2) HiBiT-GPCR DNA constructs were diluted in 10 mM Tris pH 8 to a final concentration of 0.01 μg/μL, arrayed in 96-well plates and stored at −20 °C. For transfection, HEK293 cells were suspended in Opti-MEM (without phenol red) supplemented with 2% fetal bovine serum (Seradigm) and 100 units/mL penicillin–streptomycin (Gibco) at a final concentration of 220,000 cells/mL and dispensed into white 96-well plates at 90 μL/well. Subsequent transfections and screens were carried using an Agilent Bravo Automated Liquid Handling Platform. First, the 96-well HiBiT DNA arrays were diluted 25-fold in Opti-MEM (without serum or phenol red) to a final concentration of 0.0004 μg/μL and 20 μL of the diluted DNAs were transferred into new 96-well plates. Next, promoterless carrier DNA (1 μg/μL) was diluted 25-fold (0.04 μg/μL) and then dispensed into the diluted arrays at 20 μL/well. Following brief mixing, Viafect transfection reagent (Promega) diluted 16-fold into Opti-MEM was dispensed into the plates at 40 μL/well. After mixing by pipetting, plates were incubated for 10 min on the pipetting station deck. The DNA-transfection reagent complexes were then added to plates containing cells. To facilitate the screen, 10 μL of DNA-transfection reagent complexes were added in duplicates to the top 4 and bottom 4 rows, resulting in two identical 48-well arrays per plate. Plates with transfected cells were incubated for 18–20 h at 37 °C/5% CO2. A screen of each tracer across the entire library using two different concentrations requires duplicate plates of transfected cells. Depending on the number of tracers being screened, transfections can be scaled up using the same ratios. The next day, for each tracer, four 20× screening solutions in tracer dilution buffer (Promega) were prepared: two duplicates at final concentration of 20 μM and two duplicates at a final concentration of 2 μM. A competing unmodified compound was added to one of each duplicate at a final concentration of 400 μM. The four resulting solutions were diluted 4-fold in Opti-MEM without serum or phenol red to generate 5× solutions (5 µM and 0.5 µM tracer +/− 100 μM competing compound). To screen the library, a BioTek MultiFlo FX liquid dispenser was used to dispense 22.5 µL of tracer solution to the top 4 rows and 22.5 µL tracer + competing compound solution to the 4 bottom rows. Plates were briefly mixed on an orbital shaker and incubated for 1.5 h at room temperature. […]

[2] = biological target: T2, LGR4 (Homo sapiens, UniProt Q9BXB1); assay: NanoBRET screen HiBiT-LGR4 in HEK293; conditions: LGR4
T2 construct: purchased Promega (in-house HiBiT-GPCR construct library, NanoBRET)
T2 sequence (Q9BXB1 25-951): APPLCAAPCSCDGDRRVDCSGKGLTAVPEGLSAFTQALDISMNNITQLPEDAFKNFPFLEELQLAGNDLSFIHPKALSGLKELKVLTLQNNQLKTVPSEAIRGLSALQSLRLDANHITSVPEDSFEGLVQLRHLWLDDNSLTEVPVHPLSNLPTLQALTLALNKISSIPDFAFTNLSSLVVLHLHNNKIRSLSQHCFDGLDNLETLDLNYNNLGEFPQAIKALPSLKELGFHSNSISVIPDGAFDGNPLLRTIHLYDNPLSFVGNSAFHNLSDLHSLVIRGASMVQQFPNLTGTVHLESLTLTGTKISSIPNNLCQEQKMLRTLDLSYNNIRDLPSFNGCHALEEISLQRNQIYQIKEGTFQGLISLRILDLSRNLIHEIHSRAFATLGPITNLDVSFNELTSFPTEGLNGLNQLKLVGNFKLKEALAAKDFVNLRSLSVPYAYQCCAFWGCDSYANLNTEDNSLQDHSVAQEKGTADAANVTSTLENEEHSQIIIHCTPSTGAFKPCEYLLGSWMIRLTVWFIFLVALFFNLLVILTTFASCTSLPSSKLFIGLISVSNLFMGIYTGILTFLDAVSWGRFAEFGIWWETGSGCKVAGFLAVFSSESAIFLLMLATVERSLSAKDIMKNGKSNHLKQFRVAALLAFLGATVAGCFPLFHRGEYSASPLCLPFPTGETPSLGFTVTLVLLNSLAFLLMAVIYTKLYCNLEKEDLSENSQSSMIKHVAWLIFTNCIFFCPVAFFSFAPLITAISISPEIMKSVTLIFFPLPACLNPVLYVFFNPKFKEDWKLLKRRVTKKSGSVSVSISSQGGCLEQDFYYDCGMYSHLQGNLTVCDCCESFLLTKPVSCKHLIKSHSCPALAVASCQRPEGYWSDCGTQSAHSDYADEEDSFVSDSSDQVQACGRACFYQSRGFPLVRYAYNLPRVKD
Description: as §1, §2

[3] = biological target: T3, OXER1 (Homo sapiens, UniProt Q8TDS5); assay: NanoBRET screen HiBiT-OXER1 in HEK293; conditions: OXER1
T3 construct: purchased Promega (in-house HiBiT-GPCR construct library, NanoBRET)
Description: as §1, §2

[4] = biological target: T4, MTNR1B (Homo sapiens, UniProt P49286); assay: NanoBRET screen HiBiT-MTNR1B in HEK293; conditions: MTNR1B
T4 construct: purchased Promega (in-house HiBiT-GPCR construct library, NanoBRET)
T4 sequence (P49286 1-362): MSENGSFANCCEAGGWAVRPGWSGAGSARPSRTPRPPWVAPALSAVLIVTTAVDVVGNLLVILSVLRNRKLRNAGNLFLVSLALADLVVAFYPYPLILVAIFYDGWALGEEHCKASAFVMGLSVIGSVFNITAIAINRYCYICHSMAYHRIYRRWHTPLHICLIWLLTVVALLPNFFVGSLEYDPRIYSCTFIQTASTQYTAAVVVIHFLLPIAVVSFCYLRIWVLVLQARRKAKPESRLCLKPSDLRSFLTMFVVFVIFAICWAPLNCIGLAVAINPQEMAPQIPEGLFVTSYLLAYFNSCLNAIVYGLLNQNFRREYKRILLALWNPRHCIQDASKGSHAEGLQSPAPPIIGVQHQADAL
Description: as §1, §2

T1 sequence (P28222 whole entry): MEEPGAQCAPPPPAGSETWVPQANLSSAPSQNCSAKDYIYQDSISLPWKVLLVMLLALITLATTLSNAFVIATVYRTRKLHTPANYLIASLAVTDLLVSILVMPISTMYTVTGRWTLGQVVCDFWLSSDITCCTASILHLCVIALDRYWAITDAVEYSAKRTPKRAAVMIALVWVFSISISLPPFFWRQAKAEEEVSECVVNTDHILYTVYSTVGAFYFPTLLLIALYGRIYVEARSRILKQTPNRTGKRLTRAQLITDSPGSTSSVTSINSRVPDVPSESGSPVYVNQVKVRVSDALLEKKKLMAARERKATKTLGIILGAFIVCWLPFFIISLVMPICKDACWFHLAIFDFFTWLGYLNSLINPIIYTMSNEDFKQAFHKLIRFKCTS
T3 sequence (Q8TDS5 whole entry): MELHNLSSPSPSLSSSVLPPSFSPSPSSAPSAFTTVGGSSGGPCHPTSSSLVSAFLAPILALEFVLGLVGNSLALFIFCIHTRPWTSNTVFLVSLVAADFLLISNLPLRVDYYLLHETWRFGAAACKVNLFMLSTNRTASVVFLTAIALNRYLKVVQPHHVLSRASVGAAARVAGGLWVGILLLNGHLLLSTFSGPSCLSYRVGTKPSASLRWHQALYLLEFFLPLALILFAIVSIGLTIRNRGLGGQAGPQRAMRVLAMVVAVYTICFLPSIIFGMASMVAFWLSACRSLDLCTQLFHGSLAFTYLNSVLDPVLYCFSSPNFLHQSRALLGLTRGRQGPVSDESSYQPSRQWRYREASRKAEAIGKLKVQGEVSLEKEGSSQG

## CCCn1c(=O)c2[nH]c(-c3ccc(OCC(=O)NCCNC(=O)CCOCCNC(=O)c4ccc(CNC(=O)CCc5ccc6n5[B-](F)(F)[N+]5=C(c7ccc[nH]7)C=CC5=C6)cc4)cc3)nc2n(CCC)c1=O [XAC-3-NB590]
[1]; tracer 0.1μM
  NanoBRET Fold Response: 0.66
[1]; tracer 1μM
  NanoBRET Fold Response: 1.24
[2]; tracer 0.1μM
  NanoBRET Fold Response: 1.02
[2]; tracer 1μM
  NanoBRET Fold Response: 0.99
[3]; tracer 0.1μM
  NanoBRET Fold Response: 1.04
[3]; tracer 1μM
  NanoBRET Fold Response: 0.96
[4]; tracer 0.1μM
  NanoBRET Fold Response: 1.07
[4]; tracer 1μM
  NanoBRET Fold Response: 1.05
